According to patent US9393221B2, “Methods and compounds for reducing intracellular lipid storage” (THE GENERAL HOSPITAL CORPORATION, priority 2011, dated 2016):
Structures can show the parent of a compound that is named as a salt.

tested on: ATGL-KO iPSCs; assay: High throughput iPSC chemical screening, Oil Red O (ORO) lipid accumulation; type: cell-based, mouse; conditions: not given; for Z-score: test concentration or dose not given here

In the case of `CNCCC(Oc1ccccc1OC)c1ccccc1` (stereo not shown) [Nisoxetine hydrochloride], the Z-score is reported as −1.699.

same assay, conditions: glycolytic switch compounds

With `O=C(N/N=C/c1ccc([N+](=O)[O-])o1)c1ccc(O)cc1` [Nifuroxazide] the “Rank in normalized ORO score from screen” value was 957.

same assay, conditions: normalized ORO level vs DMSO-treated cells; compound present during 7 days differentiation, 96-well; negative = decrease in lipid accumulation

Going from `O=C1C[C@@H](c2ccc(O)cc2)Oc2cc(O)cc(O)c21` [Naringenine] to `C[C@@H]1O[C@@H](O[C@H]2[C@H](Oc3cc(O)c4c(c3)O[C@H](c3ccc(O)cc3)CC4=O)O[C@H](CO)[C@@H](O)[C@@H]2O)[C@H](O)[C@H](O)[C@H]1O` [Naringin hydrate], the Z-score rises from 1.336 to 2.68.

Going from `C[C@@H]1C/C=C/C=C/C=C/C=C/[C@H](O[C@@H]2O[C@H](C)[C@@H](O)[C@H](N)[C@@H]2O)C[C@@H]2O[C@](O)(C[C@@H](O)C[C@H]3O[C@@H]3/C=C/C(=O)O1)C[C@H](O)[C@H]2C(=O)O` [Natamycin] to `C[C@@H]1[C@H](O)[C@@H](C)/C=C/C=C/CC/C=C/C=C/C=C/C=C/C(O[C@H]2O[C@H](C)[C@@H](O)[C@H](N)[C@@H]2O)CC2O[C@](O)(CC(O)C(O)CCC(O)CC(O)CC(O)CC(=O)O[C@H]1C)CC(O)C2C(=O)O` (stereo partly shown) [Nystatine], the Z-score falls from 0.06039 to −0.6743.

Going from `CN1CCOC(c2ccccc2)c2ccccc2C1` (stereo not shown) [Nefopam hydrochloride] to `CN1Cc2c(N)cccc2C(c2ccccc2)C1` (stereo not shown) [Nomifensine maleate], the Z-score falls from −0.0308 to −1.3149.

First: NC[C@@H]1O[C@H](O[C@H]2[C@@H](O)[C@H](O[C@@H]3[C@@H](O)[C@H](N)C[C@H](N)[C@H]3O[C@H]3O[C@H](CN)[C@@H](O)[C@H](O)[C@H]3N)O[C@@H]2CO)[C@H](N)[C@@H](O)[C@@H]1O.O=S(=O)(O)O [Neomycin sulfate]
Second: NC[C@@H]1O[C@H](O[C@H]2[C@@H](O)[C@H](O[C@@H]3[C@@H](O)[C@H](N)C[C@H](N)[C@H]3O[C@H]3O[C@H](CO)[C@@H](O)[C@H](O)[C@H]3N)O[C@@H]2CO)[C@H](N)[C@@H](O)[C@@H]1O [Paromomycin sulfate]
The Z-score of the first is lower: −0.2127 for the first, −0.0138 for the second.

Going from `CN(C)C(=O)Oc1cccc([N+](C)(C)C)c1` [Neostigmine bromide] to `CCOC(=O)C1=C(C)NC(C)=C(C(=O)OC)C1c1cccc([N+](=O)[O-])c1` (stereo not shown) [Nitrendipine], the Z-score falls from 1.386 to −1.7782.

Going from `CCN[C@@H]1C[C@H](N)[C@@H](O[C@H]2OC(CN)=CC[C@H]2N)[C@H](O)[C@H]1O[C@H]1OC[C@](C)(O)[C@H](NC)[C@H]1O.CCN[C@@H]1C[C@H](N)[C@@H](O[C@H]2OC(CN)=CC[C@H]2N)[C@H](O)[C@H]1O[C@H]1OC[C@](C)(O)[C@H](NC)[C@H]1O.O=S(=O)(O)O.O=S(=O)(O)O.O=S(=O)(O)O.O=S(=O)(O)O.O=S(=O)(O)O` [Netilmicin sulfate] to `CO[C@H]1C[C@H](O[C@H]2[C@H](C)[C@@H](O[C@@H]3O[C@H](C)C[C@H](N(C)C)[C@H]3O)[C@@H](C)C[C@@]3(CO3)C(=O)[C@H](C)[C@@H](O)[C@@H](C)[C@@H](C)OC(=O)[C@@H]2C)O[C@@H](C)[C@@H]1O` [Oleandomycin phosphate], the Z-score falls from 1.062 to 0.5069.

Going from `O=C(O)c1cccnc1` [Niacin] to `Cc1c(NC(=O)c2cccnc2)c(=O)n(-c2ccccc2)n1C` [Nifenazone], the Z-score rises from −0.8285 to 0.1131.

Compared with `O=C(CCNNC(=O)c1ccncc1)NCc1ccccc1` [Nialamide], `O=C(O)CCc1nc(-c2ccccc2)c(-c2ccccc2)o1` [Oxaprozin] is lower in Z-score: 0.6794 for the first, −1.009 for the second.

Compared with `COC(=O)C1=C(C)NC(C)=C(C(=O)OCCN(C)Cc2ccccc2)C1c1cccc([N+](=O)[O-])c1` (stereo not shown) [Nicardipine hydrochloride], `COCCOC(=O)C1=C(C)NC(C)=C(C(=O)OC(C)C)C1c1cccc([N+](=O)[O-])c1` (stereo not shown) [Nimodipine] is lower in Z-score: 1.451 for the first, −1.6971 for the second.

Compared with `CO[C@]12C[C@@H](COC(=O)c3cncc(Br)c3)CN(C)[C@@H]1Cc1cn(C)c3cccc2c13` [Nicergoline], `Cc1nccn1CC1CCc2c(c3ccccc3n2C)C1=O` (stereo not shown) [Ondansetron Hydrochloride] is lower in Z-score: 0.2433 for the first, −0.6933 for the second.

Going from `O=C(Nc1ccc([N+](=O)[O-])cc1Cl)c1cc(Cl)ccc1O` [Niclosamide] to `CS(=O)(=O)Nc1ccc([N+](=O)[O-])cc1Oc1ccccc1` [Nimesulide], the Z-score falls from 25.4633 to −1.0153.

First: O=C(O)c1cccnc1Nc1cccc(C(F)(F)F)c1 [Niflumic acid]
Second: COc1ccc(C(=O)c2ccccc2)c(O)c1 [Oxybenzone]
The Z-score of the first is higher: −0.6436 for the first, −1.1732 for the second.

First: O=C(N/N=C/c1ccc([N+](=O)[O-])o1)c1ccc(O)cc1 [Nifuroxazide]
Second: NC(=O)N/N=C/c1ccc([N+](=O)[O-])o1 [Nitrofural]
The Z-score of the first is higher: 1.279 for the first, −0.866 for the second.

First: CC1CS(=O)(=O)CCN1/N=C/c1ccc([N+](=O)[O-])o1 (stereo not shown) [Nifurtimox]
Second: O=C1CN(/N=C/c2ccc([N+](=O)[O-])o2)C(=O)N1 [Nitrofurantoin]
The Z-score of the first is lower: 0.2485 for the first, 0.3631 for the second.

Going from `CC1(C)NC(=O)N(c2ccc([N+](=O)[O-])c(C(F)(F)F)c2)C1=O` [Nilutamide] to `O=C1NCCN1c1ncc([N+](=O)[O-])s1` [Niridazole], the Z-score rises from −1.5582 to 1.446.

First: Cl.Cl.c1ccc2c3c([nH]c2c1)C1C2CCC(C4CCCNC42)N1CC3 (stereo not shown) [Nitrarine dihydrochloride]
Second: C#C[C@]1(O)CC[C@H]2[C@@H]3CCC4=CC(=O)CC[C@@H]4[C@H]3CC[C@@]21C [Norethindrone]
The Z-score of the first is lower: −0.8582 for the first, −0.6688 for the second.

Going from `CCN(CC)CCOC(=O)C1(c2ccc([N+](=O)[O-])cc2)CCCC1.Cl` [Nitrocaramiphen hydrochloride] to `CCN(CC)CC#CCOC(=O)C(O)(c1ccccc1)C1CCCCC1` (stereo not shown) [Oxybutynin chloride], the Z-score rises from −1.1255 to −1.0993.

First: CNC(=C[N+](=O)[O-])NCCSCc1csc(CN(C)C)n1 [Nizatidine]
Second: Cc1ncc([N+](=O)[O-])n1CC(O)CCl (stereo not shown) [Ornidazole]
The Z-score of the first is lower: −0.1369 for the first, 0.7824 for the second.

Compared with `COC(=O)Nc1nc2ccc(C(=O)c3cccs3)cc2[nH]1` [Nocodazole], `CCCCc1ccc2[nH]c(NC(=O)OC)nc2c1` [Parbendazole] is higher in Z-score: 18.0445 for the first, 39.1106 for the second.

Compared with `CC(=O)O[C@]1(C(C)=O)CC[C@H]2[C@@H]3C=C(C)C4=CC(=O)CC[C@@H]4[C@H]3CC[C@@]21C` [Nomegestrol acetate], `C#C[C@]1(O)CC[C@H]2[C@@H]3CCC4=CC(=O)CC[C@@H]4[C@H]3CC[C@@]21CC` [Norgestrel-(−)-D] is lower in Z-score: 1.552 for the first, 1.412 for the second.

Going from `CNCCC=C1c2ccccc2C=Cc2ccccc21` [Norcyclobenzaprine] to `CNCCC=C1c2ccccc2CCc2ccccc21` [Nortriptyline hydrochloride], the Z-score falls from −0.6046 to −1.28.

Going from `C#C[C@]1(O)CC[C@H]2[C@@H]3CCC4=C(CCC(=O)C4)[C@H]3CC[C@@]21C` [Norethynodrel] to `CC(=O)O[C@H]1C[C@@H]2CC[C@@H]3[C@H](CC[C@@]4(C)[C@H]3C[C@H]([N+]3(C)CCCCC3)[C@@H]4OC(C)=O)[C@@]2(C)C[C@@H]1[N+]1(C)CCCCC1` [Pancuronium bromide], the Z-score rises from −0.7872 to 0.2708.

First: CCn1cc(C(=O)O)c(=O)c2cc(F)c(N3CCNCC3)cc21 [Norfloxacin]
Second: CCn1cc(C(=O)O)c(=O)c2cc3c(cc21)OCO3 [Oxolinic acid]
The Z-score of the first is higher: 0.6666 for the first, −1.0488 for the second.

First: COc1ccc2c(c1OC)C(=O)O[C@@H]2[C@H]1c2c(cc3c(c2OC)OCO3)CCN1C [Noscapine]
Second: COc1cc2c(cc1OC)-c1cc3ccc(OC)c(OC)c3c[n+]1CC2 [Palmatine chloride]
The Z-score of the first is lower: 0.8948 for the first, 6.905 for the second.

Going from `CO[C@@H]1[C@@H](OC(N)=O)[C@@H](O)[C@H](Oc2ccc3c(O)c(NC(=O)c4ccc(O)c(CC=C(C)C)c4)c(=O)oc3c2C)OC1(C)C` [Novobiocin sodium salt] to `CN(C)[C@@H]1C(O)=C(C(N)=O)C(=O)[C@@]2(O)C(O)=C3C(=O)c4c(O)cccc4[C@@](C)(O)[C@H]3[C@H](O)[C@@H]12` [Oxytetracycline dihydrate], the Z-score rises from −1.5591 to 1.185.

First: CC1COc2c(N3CCN(C)CC3)c(F)cc3c(=O)c(C(=O)O)cn1c23 (stereo not shown) [Ofloxacin]
Second: CN1CCCN=C1/C=C/c1cccc(O)c1.O=C(O)c1cc2ccccc2c(Cc2c(O)c(C(=O)O)cc3ccccc23)c1O [Oxantel pamoate]
The Z-score of the first is lower: 0.7623 for the first, 1.422 for the second.

First: COc1ccc2[nH]c([S+]([O-])Cc3ncc(C)c(OC)c3C)nc2c1 (stereo not shown) [Omeprazole]
Second: COc1ccc(Cc2nccc3cc(OC)c(OC)cc23)cc1OC [Papaverine hydrochloride]
The Z-score of the first is lower: −0.5848 for the first, 9.542 for the second.

Compared with `Cc1ccccc1C(OCCN(C)C)c1ccccc1` (stereo not shown) [Orphenadrine hydrochloride], `CN(C(=O)CN(CCO)CC(=O)N(C)C(C)(C)Cc1ccccc1)C(C)(C)Cc1ccccc1` [Oxethazaine] is lower in Z-score: −0.3046 for the first, −0.9515 for the second.

Compared with `CCN(CC)CCc1nc(-c2ccccc2)no1.O=C(O)CC(O)(CC(=O)O)C(=O)O` [Oxalamine citrate salt], `CCCCC1C(=O)N(c2ccccc2)N(c2ccc(O)cc2)C1=O` (stereo not shown) [Oxyphenbutazone] is higher in Z-score: −1.3452 for the first, −1.1165 for the second.

First: C=CCOc1ccccc1OCC(O)CNC(C)C (stereo not shown) [Oxprenolol hydrochloride]
Second: CC(C)(C)NC[C@H](O)COc1ccccc1C1CCCC1 [Penbutolol sulfate]
The Z-score of the first is higher: −0.2057 for the first, −0.627 for the second.

Going from `Cc1cc(C(C)(C)C)c(O)c(C)c1CC1=NCCN1` [Oxymetazoline hydrochloride] to `Fc1ccc([C@@H]2CCNC[C@H]2COc2ccc3c(c2)OCO3)cc1` [Paroxetine Hydrochloride], the Z-score falls from 0.1199 to −0.9182.

First: O=C(O)/C=C/c1ccc(Cn2ccnc2)cc1 [Ozagrel hydrochloride]
Second: C#CCN(C)Cc1ccccc1 [Pargyline hydrochloride]
The Z-score of the first is higher: −0.6787 for the first, −0.735 for the second.

Going from `CC(=O)O[C@H]1C(=O)[C@@]2(C)[C@H]([C@H](OC(=O)c3ccccc3)[C@]3(O)C[C@H](OC(=O)[C@H](O)[C@@H](NC(=O)c4ccccc4)c4ccccc4)C(C)=C1C3(C)C)[C@]1(OC(C)=O)CO[C@@H]1C[C@@H]2O` [Paclitaxel] to `CC(C)(CO)[C@@H](O)C(=O)NCCC(=O)O` [Pantothenic acid calcium salt monohydrate], the Z-score falls from 48.9183 to −1.5008.

Compared with `CC(C)(CO)[C@@H](O)C(=O)NCCCO` [Panthenol (D)], `CN1C(C)(C)CCCC1(C)C` [Pempidine tartrate] is lower in Z-score: −0.069 for the first, −0.8069 for the second.
